Source: patent publication US20210386841A1, “COMPOSITIONS FOR TRANSFECTING mRNA INTO A CELL AND THEIR APPLICATIONS” (POLYPLUS TRANSFECTION, priority 2018, published 2021)

Experiments:
Assay type in all cases: cell-based
[1] = test system: BJ human skin fibroblast cells; assay: eGFP mRNA transfection, BJ cells (96-well); settings: co-lipid DOPE, ratio 1/2; 150 ng eGFP mRNA; 24 h
Description: BJ (ATCC® CRL-2522™) human skin fibroblast cells were grown in Eagle's Minimum Essential Medium with 10% FBS and supplemented with 1% non-essential amino acids, 1 mM sodium pyruvate, 2 mM glutamine and 100 U/mL of penicillin and 100 μg/mL of streptomycin at 37° C. in a 5% CO2 in air atmosphere.
(§1) mRNA eGFP (996 nt, reference L-6101) from TriLink Technologies was used for the in vitro transfection experiments and expressed enhanced green fluorescent protein which is a common reporter gene (eGFP). This mRNA was capped with a Cap 0, polyadenylated and modified with 5-methylcytidine and pseudo-uridine.
(§2) One day before transfection, Caco-2, THP-1 or BJ Cells were seeded at 10 000, 25 000, or 5 000 cells per well (96-well plate format), respectively, in 125 μL of their respective complete medium and incubated at 37° C. in a 5% CO2 in air atmosphere. For Jurkat cells, 25 000 cells were seeded per well prior transfection. On the day of transfection 150 ng of mRNA was added in 11.5 μL of 5% glucose solution, mixed with a vortex and incubated for 5 minutes at rt. Then, 1 μL of 1 mM cationic liposomal formulation was added onto the diluted mRNA, mixed with a vortex and incubated for 15 minutes at rt. The formulated mRNA solution (12.5 μL) was added into the well and the plate was incubated for 24 hours at 37° C. in a 5% CO2 in air atmosphere.
(§3) For the GFP expression analysis, the cell culture medium was removed for the adherent cells and 50 μL of trypsin-EDTA (1×, Lonza) was added and the plate was incubated for 5 minutes at 37° C. 150 μL of complete medium were added to neutralize the trypsin, and the GFP expression was analysed (2000 events) by flow cytometry (Exc 488 nm, Em 520 nm) using a Guava easyCyte 6HT cytometer (Millipore).
(§4) All these new liposomal formulations (Table 1) were assessed to deliver mRNA expressing an enhanced green fluorescent protein (eGFP) as reporter gene in order to determine the gene expression and the transfection efficiency (Table 2). mRNA eGFP capped with a Cap 0 in 5′-end, polyadenylated in 3′-end and modified with 5-methylcytidine and pseudo-uridine was used in the transfection assay. The transfection assay was performed as described in the Experimental section where 150 ng of mRNA eGFP was complexed with 1 μL of 1 mM cationic liposomal formulations in a 5% glucose solution before the addition on the cells. One day post-transfection, the eGFP expression was analyzed by flow cytometry to determine the percentage of transfection. Four different cell lines were used in this assay from easy to transfect cells to hard to transfect cells with plasmid DNA, including human BJ skin fibroblast cells, THP-1 human peripheral blood monocytes, Caco-2 human colon epithelial cells and Jurkat Clone E6-1 human T lymphoblast cells, respectively.

[2] = test system: THP-1 human peripheral blood monocyte cells; assay: eGFP mRNA transfection, THP-1 cells (96-well); settings: ratio 1/2, 150 ng eGFP mRNA, 24 h
Description: THP-1 (ATCC® TIB-202™) human peripheral blood monocyte cells were grown in RPMI-1640 with 10% FBS and supplemented with 10 mM HEPES buffer, 1 mM sodium pyruvate, 0.05 mM 2-mercaptoethanol, 2 mM glutamine, 100 U/mL of penicillin and 100 μg/mL of streptomycin at 37° C. in a 5% CO2 in air atmosphere.
as §1, §2, §3, §4

[3] = test system: Caco-2 human colon epithelial cells; assay: eGFP mRNA transfection, Caco-2 cells (96-well); settings: for Transfection efficiency (eGFP %) CaCO2: ratio 1/2, 150 ng eGFP mRNA, 24 h
Description: Caco-2 (ATCC® HTB-37™) human colon epithelial cells were grown in DMEM 4.5 g/L glucose with 20% FBS supplemented with 1% non-essential amino acids, 1 mM sodium pyruvate, 2 mM glutamine and 100 U/mL of penicillin and 100 μg/mL of streptomycin at 37° C. in a 5% CO2 in air atmosphere.
as §1, §2, §3, §4

[4] = test system: Jurkat Clone E6-1 human T lymphoblast cells; assay: eGFP mRNA transfection, Jurkat cells (96-well); settings: 150 ng eGFP mRNA, 24 h
Description: Jurkat Clone E6-1 (ATCC® TIB-152™) human T lymphoblast cells were grown in RPMI-1640 (LONZA) with 10% of FBS (EUROBIO) and supplemented with 2 mM Glutamine (LONZA), 100 U/mL of penicillin and 100 μg/mL of streptomycin (LONZA) at 37° C. in a 5% CO2 in air atmosphere.
as §1, §2, §3, §4

[5] = co-lipid DOPE, ratio compound/co-lipid 1/2, 1 μL of 1 mM formulation, flow cytometry

Row | Compound | Transfection efficiency (eGFP %) BJ [1] | Transfection efficiency (eGFP %) THP-1 ([2]; co-lipid DOPE) | Transfection efficiency (eGFP %) CaCO2 ([3]; co-lipid DOPE) | Transfection efficiency (eGFP %) Jurkat [4, 5] | GFP expression one day post-transfection, comparison of co-lipids ([3]; CaCo2 cells, co-lipid DPyPE versus DOPE, PaLiPE, DiLiPE, molar ratio 1:2 (FIG. 3)) | Transfection efficiency (eGFP %) THP-1 ([2]; co-lipid DPyPE) | Transfection efficiency (eGFP %) CaCO2 ([3]; co-lipid DPyPE) | Transfection efficiency (eGFP %) Jurkat ([4]; co-lipid DPyPE, ratio 1/2) | Transfection efficiency (eGFP %) Jurkat ([4]; co-lipid DPyPE, ratio 1/1.5)
1 | CCCCCCCC/C=C\CCCCCCCCC(CCCCCCCC/C=C\CCCCCCCC)[n+]1ccn(C)c1.[Cl-] [Compound W1.4, 1-methyl-3-(heptatriaconta-9,28-dien-19-yl)-1-methyl-1H-imidazol-3-ium chloride] | 80-95% | 80-85% | 15-25% | 10-15% |  |  |  |  | 
2 | CCCCCCC/C=C\CCCCCCCCC(CCCCCCCCCCCCCC)[n+]1ccn(C)c1 (stereo not drawn) [Compound W2.5] | 70-85% | 70-75% | 5-10% | 1-5% |  |  |  |  | 
3 | CCCCCCC/C=C\CCCCCCCCC(CCCCCCCCCCCCCCCCCC)[n+]1ccn(C)c1.[Cl-] (stereo not drawn) [Compound W3.5, 1-methyl-3-(hexatriacont-8-en-18-yl)-1H-imidazol-3-ium chloride] | 80-95% | 35-45% | 35-40% | 10-15% |  |  |  |  | 
4 | CCCCCCCCCCCCCCCCCCC(CCCCCCCCCC)[n+]1ccn(C)c1.[Cl-] (stereo not drawn) [Compound W6.3, 1-methyl-3-(nonacosan-11-yl)-1H-imidazol-3-ium chloride] | 80-85% | 30-40% | 5-10% | 20-25% |  |  |  |  | 
5 | CCCCCCCCCCCCCCCCCCC(CCCCCCCCCCCCCCCCC)C[n+]1ccn(C)c1.[Cl-] (stereo not drawn) [Compound W7.4, 1-methyl-3-(2-heptadecylicosyl)-1H-imidazol-3-ium chloride] | 65-75% | 40-50% | 5-15% | 5-15% |  |  |  |  | 
6 | CCCCCCC/C=C\CCCCCCCCC(CCCCCCCC/C=C\CCCCCCCC)[n+]1ccn(C)c1.[Cl-] (stereo not drawn) [Compound W8.7, 1-methyl-3-(hexatriaconta-8,27-dien-18-yl)-1H-imidazol-3-ium] | 80-85% | 70-80% |  | 10-15% |  |  |  |  | 
7 | CCCCCCCCCCCCCCC(CCCCCCCCCCCCCC)CCCCC(CCCCCCCCCCCCCC)[n+]1ccn(C)c1.[Cl-] (stereo not drawn) [Compound W9.7, 1-methyl-3-(20-tetradecyltetratriacontan-15-yl)-1H-imidazol-3-ium chloride] | 90-95% | 70-80% | 40-50% | 10-15% | optimal |  |  |  | 
8 | CCCCCCCC/C=C\CCCCCCCCC(CCCCC(CCCCCCCCCCCCCC)CCCCCCCCCCCCCC)[n+]1ccn(C)c1.[Cl-] (stereo not drawn) [Compound W10.7, 1-methyl-3-(24-tetradecyloctatriacont-9-en-19-yl)-1H-imidazol-3-ium chloride] | 90-95% | 70-80% | 65-75% | 25-30% |  |  |  |  | 
9 | CCCCCCCCCCCCCCCCCCC(CCCCC(CCCCCCCCCCCCCC)CCCCCCCCCCCCCC)[n+]1ccn(C)c1.[Cl-] (stereo not drawn) [Compound W11.7, 1-methyl-3-(24-tetradecyloctatriacontan-19-yl)-1H-imidazol-3-ium chloride] | 90-95% | 80-90% | 35-45% | 15-25% |  |  |  |  | 
10 | CCCCCCCCCCCCCCCCCCC(CCCCCCCCCCCCCCCCCC)CCCCC(CC1CCCCC1)[n+]1ccn(C)c1.[Cl-] (stereo not drawn) [Compound W14.7, 1-methyl-3-(1-cyclohexyl-7-octadecylpentacosan-2-yl)-1H-imidazol-3-ium chloride] |  | 55-65% |  | 25-35% |  |  |  |  | 
11 | CCCCCCCCCCCCCCCCCCC(CCCCCCCCCCCCCCCCCC)CCCCC(Cc1ccccc1)[n+]1ccn(C)c1.[Cl-] (stereo not drawn) [Compound W15.7, 1-methyl-3-(7-octadecyl-1-phenylpentacosan-2-yl)-1H-imidazol-3-ium chloride] |  | 55-70% |  | 25-30% |  |  |  |  | 
12 | CCCCCCCCCCCCCCCCCCC(CCCCCCCCCCCCCCCCCC)CCCCC(CCC(C)CCCC(C)C)[n+]1ccn(C)c1.[Cl-] (stereo not drawn) [Compound W16.7, 1-methyl-3-(2,6-dimethyl-14-octadecyldotriacontan-9-yl)-1H-imidazole-3-ium chloride] |  | 75-80% | 15-20% | 35-40% |  |  |  |  | 
13 | CCCCCCCCCCCCCCCCCCC(CCCCCCCCCCCCCCCCCC)CCCCC(CCCCCC)[n+]1ccn(C)c1.[Cl-] (stereo not drawn) [Compound W17.7, 1-methyl-3-(12-octadecyltriacontan-7-yl)-1H-imidazol-3-ium chloride] |  | 70-75% |  | 30-35% |  |  |  |  | 
14 | CCCCCCCCCCCCCCC(CCCCCCCCCCCCCC)CCCCC(CCCCC(CCCCCCCCCCCCCC)CCCCCCCCCCCCCC)[n+]1ccn(C)c1.[Cl-] [Compound W18.9, 1-methyl-3-(15,25-ditetradecylnonatriacontan-20-yl)-1H-imidazol-3-ium chloride] |  | 80-85% |  | 25-30% |  |  |  |  | 
15 | CCCCCCCCCCCCCCCCCCNC(CCCCCCCCCC)CCCC(CCCCCCCCCC)n1cc[n+](C)c1.Cl.[Cl-] (stereo not drawn) [Compound W19.7, 1-methyl-3-(15-(octadecylammonio)pentacosan-11-yl)-1H-imidazol-3-ium chloride] |  | 40-50% |  | 40-50% |  |  |  |  | 
16 | CCCCCCCCCCCCCCCCCCC(CCCCCCCCCCCCCCCCCC)CCCCC(CCC(C)CCCC(C)C)[n+]1ccn(CCCC)c1.[Cl-] (stereo not drawn) [Compound W21.7, 1-butyl-3-(2,6-dimethyl-14-octadecyldotriacontan-9-yl)-1H-imidazol-3-ium chloride] |  | 70-80% | 50-60% | 40-50% |  | 70-80% | 60-70% | 55-65% | 
17 | CCCCCCCCCCCCCCC(CCCCCCCCCCCCCC)CCCCC(CCC(C)CCCC(C)C)[n+]1ccn(CCCC)c1.[Cl-] (stereo not drawn) [Compound W22.7, 1-butyl-3-(2,6-dimethyl-14-tetradecyloctacosan-9-yl)-1H-imidazol-3-ium chloride] |  | 70-80% |  | 50-60% |  | 80-85% |  | 40-55% | 
18 | CCCCn1cc[n+](C(CCCCC(CCC(C)CCCC(C)C)CCC(C)CCCC(C)C)CCC(C)CCCC(C)C)c1.[Cl-] (stereo not drawn) [Compound W23.7, 1-butyl-3-(14-(3,7-dimethyloctyl)-2,6,17,21-tetramethyldocosan-9-yl)-1H-imidazol-3-ium chloride] |  |  |  |  |  |  |  |  | 25-30%
